From patent US20260022126A1, “2-(L,8-DIETHYL-1,3,4,9-TETRAHYDROPYRANO[3,4-B]INDOL-1-YL)-N-(2-(PIPERIDIN-1 YL)ETHYL)ACETAMIDE ETODOLAC DERIVATIVE AS A EUKARYOTIC ELONGATION FACTOR 2 KINASE (EEF2K) INHIBITOR FOR TARGETED CANCER THERAPY” (BAHCESEHIR UNIVERSITESI, priority 2023, published 2026)

Columns and labels:
eEF2K [1] = molecular target: T1, eEF2K (Homo sapiens, UniProt O00418); test: Western blot of p-EF2 (Thr56) for eEF2K inhibition in MDA-MB-231 cells; assay type: cell-based; conditions: for eEF2K inhibition potential: MDA-MB-231 (TNBC) cells, 2.5 to 20 micromolar
T1 sequence (O00418 1-725): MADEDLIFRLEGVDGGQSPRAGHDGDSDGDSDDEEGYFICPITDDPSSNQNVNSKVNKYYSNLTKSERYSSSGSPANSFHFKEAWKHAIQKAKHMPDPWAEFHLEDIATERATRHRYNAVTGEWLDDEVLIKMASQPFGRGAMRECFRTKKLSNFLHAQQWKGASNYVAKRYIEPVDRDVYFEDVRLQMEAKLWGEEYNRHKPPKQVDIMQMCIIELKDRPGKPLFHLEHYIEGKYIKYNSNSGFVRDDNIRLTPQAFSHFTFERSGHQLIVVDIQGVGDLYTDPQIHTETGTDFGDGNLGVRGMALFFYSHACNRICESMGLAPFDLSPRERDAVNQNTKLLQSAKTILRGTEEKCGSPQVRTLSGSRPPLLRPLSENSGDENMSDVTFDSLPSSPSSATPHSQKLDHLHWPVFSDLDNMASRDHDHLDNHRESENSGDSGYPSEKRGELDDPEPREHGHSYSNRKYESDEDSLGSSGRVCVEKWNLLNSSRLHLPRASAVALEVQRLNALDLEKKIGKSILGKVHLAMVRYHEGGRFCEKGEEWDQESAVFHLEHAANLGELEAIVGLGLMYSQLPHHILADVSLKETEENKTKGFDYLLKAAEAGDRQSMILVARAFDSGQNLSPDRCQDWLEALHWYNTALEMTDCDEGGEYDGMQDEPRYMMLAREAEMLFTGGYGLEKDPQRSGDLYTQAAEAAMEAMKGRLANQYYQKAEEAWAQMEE
Method: MeOH: distilled water by volume (%) (70:30) was used as the mobile phase for HPLC analysis for the inventive compound and the flow rate was set to 1 mL min^-1. Triple negative breast cancer (TNBC) cell lines (ER-, PR- and HER2-) MDA-MB-231 cells were purchased from the American Type Culture Collection (ATCC) (Manassas, VA, USA). MDA-MB-231 cells were cultured in Dulbecco's modified Eagle's medium (DMEM)/F12 supplemented with 10% FBS (Fetal Bovine Serum) and 100 U mL^-1 penicillin and streptomycin. Specific antibodies (p-EF2 (Thr56) (2331S), eEF2 (2332S), eEF2K (3692S) and GAPDH (5174S)) were purchased from Cell Signaling Technology (CST).
Western blot analysis was carried out according to previously reported studies to evaluate the eEF2K inhibition activity for the synthesized compounds. The synthesized compound was applied to MDA-MB-231 cells in the range of various concentrations from 2.5 to 20 micromolar for 2 h treatment. The expression levels of p-EF2 (Thr56) inhibition and eEF2K activity were determined by using related antibodies such as p-EF2 (Thr56), eEF2 and eEF2K. Glyceraldehyde 3-phosphate dehydrogenase (GAPDH) was used as a loading control.
To determine the effects of the synthesized compounds in inhibiting eEF2K activity in TNBC, MDA-MB-231 cells, we performed western blot analysis at concentrations ranging from 2.5 micromolar to 20 micromolar in a dose-dependent manner. eEF2K inhibition was detected by decreased phosphorylation levels of EF2 (p-EF2-Thr-56), a direct downstream substrate of the enzyme.

cancer cells = conditions: literature; very high doses; cited from earlier work
eEF2K [2] = molecular target: T1, eEF2K; conditions: literature, cited from earlier work
other protein kinases = conditions: literature; cited from earlier work

## CCc1cccc2c3c([nH]c12)C(CC)(CC(=O)O)OCC3 (racemic) [Etodolac, (R,S)-2-[1,8-diethyl-1,3,4-tetrahydropyrano[3,4-b]indol-1-yl] acetic acid]
eEF2K [1]; western blot
  eEF2K inhibition potential: did not show any inhibition potential

## CCn1c(=O)c2cc(C(N)=O)c(N)nc2n(C2CC2)c1=O [A484954]
Cancer cells
  Dose showing inhibition effect in cancer cells: 75 µM

## CCc1cccc2c3c([nH]c12)C(CC)(CC(=O)NCCN1CCCCC1)OCC3 (stereo not shown) [Inventive compound, 2-(1,8-Diethyl-1,3,4,9-tetrahydropyrano[3,4-b]indol-1-yl)-N-(2-(piperidin-1-yl)ethyl)acetamide]
eEF2K [1]; western blot
  eEF2K inhibition potential: high inhibition potential
eEF2K [1]; MDA-MB-231 cells, 2.5 and 5 micromolar, 2 h treatment
  phospho-eEF2 (Thr56) inhibition: highest phospho-eEF2 (Thr56) inhibition
eEF2K [1]; MDA-MB-231 cells, 2.5 micromolar, compared to etodolac (EC), western blot
  eEF2K inhibition (reduced levels of p-EF2): marked inhibition of eEF2K

## CCCCCCCCCCCCCCCCn1cc[n+](Cc2ccccc2)c1C.[I-] [NH125]
eEF2K [2]
  eEF2K inhibition (in words): does not inhibit EF2K but rather increases eEF2 phosphorylation

## Cc1cc(C=C2C(=O)C=CC2=O)cc(C)c1O [TX1918]
eEF2K [2]
  eEF2K inhibition (in words): did not show significant eEF2K inhibition
eEF2K [2]; concentrations as high as
  Concentration reported to inhibit eEF2K: 10 µM
Other protein kinases
  Activity against other kinases (specificity): inhibitory activity against five different kinases

## CC(=O)c1c(O)c(C)c(O)c(Cc2c(O)c3c(c(C(=O)/C=C/c4ccccc4)c2O)OC(C)(C)C=C3)c1O [rottlerin]
Other protein kinases
  Activity against other kinases (specificity): inhibits various other protein kinases at concentrations lower than those required for inhibition of eEF2K
